Among the test systems are K-562 leukemia; SK-MEL-28 melanoma; KM12 colon; ACHN renal; SF-295 CNS; A549 NSCLC; TK-10 renal; M14 melanoma.
What all share (experiment): NCI anticancer screen, dose series, 48 h

Structures are written as SMILES.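 96-well plates; 48 h exposure; 5 concentrations. Endpoints by linear interpolation between flanking doses. Not reached: highest tested concentration assigned. GI50 is the concentration that inhibits growth by half. TGI: concentration producing complete growth inhibition.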

For the molecule `C=CCNCCCN1C(=O)c2ccc3c4c(ccc(c24)C1=O)C(=O)N(CCCNCC=C)C3=O`, the GI50 was 296 nM with K-562 leukemia; 1060 nM in the assay on SK-MEL-28 melanoma; 417 nM with KM12 colon; 268 nM in the assay on ACHN renal; 200 nM in the assay with SF-295 CNS; 226 nM in the assay with A549 NSCLC. Further, the GI50 was 551 nM with TK-10 renal and 470 nM with M14 melanoma. Besides, the TGI in the assay on K-562 leukemia stood at 1480 nM; in the assay with SK-MEL-28 melanoma, 2600 nM; in the assay with KM12 colon it was 1620 nM; with ACHN renal, 4380 nM; with SF-295 CNS, 955 nM; with A549 NSCLC, 605 nM. In addition, the results for the TGI in the assay on TK-10 renal and in the assay with M14 melanoma were 6140 nM and 1660 nM, respectively.

With `COc1ccc(-c2cnnn2-c2cc(OC)c3c(c2)OCO3)cc1`, the GI50 is 41.7 nM in the assay on K-562 leukemia; 580 nM with SK-MEL-28 melanoma; 56.4 nM in the assay with KM12 colon; 891 nM with ACHN renal; 58.5 nM in the assay on SF-295 CNS; 107 nM in the assay with A549 NSCLC. For the same molecule, the GI50 in the assay with TK-10 renal was 25000 nM; with M14 melanoma, 53.7 nM. For the same molecule, the TGI with K-562 leukemia was more than 100000 nM; in the assay with SK-MEL-28 melanoma it was more than 100000 nM; in the assay on KM12 colon, more than 30800 nM; with ACHN renal, more than 100000 nM; with SF-295 CNS, more than 100000 nM; in the assay on A549 NSCLC it was more than 100000 nM. Further, the TGI in the assay with TK-10 renal and in the assay with M14 melanoma was more than 100000 nM in each case.

Consider `c1cc(CCN2CCCCC2)ccn1`, for which the TGI in the assay with K-562 leukemia, in the assay with SK-MEL-28 melanoma, with KM12 colon, in the assay with ACHN renal, with SF-295 CNS and with A549 NSCLC was more than 100000 nM in each case. Moreover, the TGI with TK-10 renal and in the assay with M14 melanoma was more than 100000 nM each time.

For the molecule `C=CC1=C[C@@H]2[C@@H]3O[C@]4(CC[C@H](O4)[C@@H](C)C[C@@H](O)C3=O)C[C@H](O)C3=NCC[C@@]32CC1`, the GI50 in the assay on K-562 leukemia, with SK-MEL-28 melanoma, with KM12 colon, with ACHN renal, in the assay with SF-295 CNS and in the assay on A549 NSCLC was less than 3.33 nM in each case. For the same molecule, the GI50 in the assay on TK-10 renal and with M14 melanoma was less than 3.33 nM in each case. For the same molecule, the TGI in the assay with K-562 leukemia was more than 33300 nM; in the assay on SK-MEL-28 melanoma, less than 3.33 nM; in the assay on KM12 colon it was 6.1 nM; with ACHN renal, less than 3.33 nM; in the assay with SF-295 CNS, less than 3.33 nM; with A549 NSCLC, 4.59 nM. In addition, the values for the TGI in the assay with TK-10 renal and in the assay with M14 melanoma were 3.85 nM and less than 3.33 nM, respectively.

For the molecule `Cc1ccc(NC(=O)c2cc3ccccc3c(N=Nc3ccccc3O)c2O)c(C)c1`, the TGI in the assay on K-562 leukemia is more than 100000 nM; in the assay on SK-MEL-28 melanoma it was 79100 nM; in the assay on KM12 colon, 14800 nM; in the assay with ACHN renal it was 16400 nM; in the assay on SF-295 CNS it was 10500 nM; in the assay with A549 NSCLC, 12700 nM. The TGI in the assay with TK-10 renal amounted to 24500 nM; with M14 melanoma, 12700 nM.

`COc1ccc2c(c1)c(-c1nc(-c3c[nH]c4ncccc34)cs1)cn2CCCCN1CCOCC1`: the GI50 in the assay on K-562 leukemia is 1950 nM; in the assay with SK-MEL-28 melanoma, 1850 nM; in the assay with KM12 colon, 1930 nM; in the assay on ACHN renal, 1790 nM; with SF-295 CNS, 1930 nM; in the assay on A549 NSCLC, 2230 nM. For the same molecule, the values for the GI50 in the assay with TK-10 renal and in the assay with M14 melanoma were 5250 nM and 1810 nM, respectively. Further, the TGI was 3990 nM in the assay with K-562 leukemia; 3400 nM in the assay with SK-MEL-28 melanoma; 3960 nM in the assay on KM12 colon; 3400 nM with ACHN renal; 4070 nM in the assay on SF-295 CNS; 4280 nM in the assay with A549 NSCLC. Moreover, the values for the TGI with TK-10 renal and with M14 melanoma were 18000 nM and 3620 nM, respectively.

As for `NC(=O)c1oc([N+](=O)[O-])c(-c2ccccc2)c1-c1ccccc1`, the TGI in the assay on K-562 leukemia is 59600 nM; in the assay with SK-MEL-28 melanoma, more than 100000 nM; with KM12 colon, 40900 nM; with ACHN renal, 82000 nM; in the assay on SF-295 CNS, 35300 nM; in the assay with A549 NSCLC, 44500 nM. For the same molecule, the TGI with TK-10 renal was determined as 72800 nM; in the assay on M14 melanoma it was 32500 nM.

Consider `COc1cc(C(O)c2nc3ccccc3s2)cc(OC)c1OC` (stereo not drawn), for which the GI50 is 3600 nM with K-562 leukemia; more than 100000 nM with SK-MEL-28 melanoma; 78300 nM in the assay on KM12 colon; 65500 nM in the assay with ACHN renal; 6290 nM in the assay with SF-295 CNS; 86700 nM with A549 NSCLC. Moreover, the GI50 with TK-10 renal was 47300 nM; with M14 melanoma, 85300 nM. For the same molecule, the TGI with K-562 leukemia, in the assay with SK-MEL-28 melanoma, in the assay with KM12 colon, with ACHN renal, in the assay with SF-295 CNS and with A549 NSCLC was more than 100000 nM throughout. For the same molecule, the TGI in the assay with TK-10 renal and with M14 melanoma was more than 100000 nM throughout.

As to `O=C1c2ccc3c4c5ccc(c24)C(=O)N1CCCOCCCCOCCCNCc1ccc(cc1)CNCCCOCCCCOCCCN(C3=O)C5=O`, the GI50 with K-562 leukemia was 987 nM; in the assay with SK-MEL-28 melanoma, 894 nM; with KM12 colon, 896 nM; with ACHN renal, 859 nM; with SF-295 CNS, 881 nM; in the assay on A549 NSCLC, 1010 nM. For the same molecule, the figures for the GI50 in the assay on TK-10 renal and in the assay on M14 melanoma were 1030 nM and 923 nM, respectively. Besides, the TGI turned out to be 2400 nM in the assay on K-562 leukemia; 1630 nM with SK-MEL-28 melanoma; 2060 nM with KM12 colon; 1570 nM in the assay on ACHN renal; 1690 nM with SF-295 CNS; 2070 nM with A549 NSCLC. Besides, the figures for the TGI with TK-10 renal and with M14 melanoma were 2420 nM and 1750 nM, respectively.

As for `COc1ccc(C(=O)COc2cccc(/C=C3\CSc4ccccc4C3=O)c2)cc1`, the GI50 is 362 nM in the assay on K-562 leukemia; 2040 nM with SK-MEL-28 melanoma; 1560 nM with KM12 colon; 1930 nM in the assay on ACHN renal; 1870 nM in the assay with SF-295 CNS; 9040 nM with A549 NSCLC. The results for the GI50 in the assay on TK-10 renal and in the assay on M14 melanoma were 2730 nM and 2010 nM, respectively. Also, the TGI in the assay on SK-MEL-28 melanoma stood at 3710 nM; with KM12 colon it was 3050 nM; in the assay with ACHN renal, 3860 nM; with SF-295 CNS, 3770 nM; in the assay on A549 NSCLC it was 39500 nM; in the assay on TK-10 renal it was 9790 nM. In addition, in the assay on M14 melanoma, the TGI is 4010 nM.

As for `Cc1ccc2c(c1C)-c1c(ccc(C)c1C)C(=O)C2=O`, the TGI with K-562 leukemia came out at 1100 nM; with SK-MEL-28 melanoma, 2830 nM; in the assay with KM12 colon, 2210 nM; in the assay with ACHN renal, 3910 nM; with SF-295 CNS, 2950 nM; in the assay on A549 NSCLC, 10300 nM. For the same molecule, the TGI was 9110 nM in the assay with TK-10 renal and 2120 nM in the assay on M14 melanoma.

These data come from PubChem BioAssay (NCI).
